Values joined by “and” are separate entries in the source; they are usually repeats but may differ in a detail not shown here. Equal values may be shown once. Non-standard residues stand in square brackets, D forms with d. No end group written: not given here. Phe(F5) = N[C@@H](Cc1c(F)c(F)c(F)c(F)c1F)C(=O)O; Bip = N[C@@H](Cc1ccc(-c2ccccc2)cc1)C(=O)O; Phe(2-Cl) = N[C@@H](Cc1ccccc1Cl)C(=O)O; 2Nal = N[C@@H](Cc1ccc2ccccc2c1)C(=O)O; Tic = O=C(O)[C@@H]1Cc2ccccc2CN1; Cha = N[C@@H](CC1CCCCC1)C(=O)O
Tests used:
Experiment in all cases: tetrapeptide-ACC substrate cleavage kinetics
Assay type in all cases: biochemical
[1] = target: T1, human caspase-1 (Homo sapiens, UniProt P29466); settings: Ac-P4-P3-P2-Asp-ACC substrate, 0.05-500 μM, 2-15 nM enzyme, 37°C, triplicate
T1 sequence (P29466 120-297 limits assumed): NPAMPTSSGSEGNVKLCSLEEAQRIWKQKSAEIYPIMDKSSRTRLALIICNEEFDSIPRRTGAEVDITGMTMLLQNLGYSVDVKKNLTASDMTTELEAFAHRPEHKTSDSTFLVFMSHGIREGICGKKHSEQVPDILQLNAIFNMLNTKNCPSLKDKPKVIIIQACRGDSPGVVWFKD
T1 sequence (P29466 317-404 limits assumed): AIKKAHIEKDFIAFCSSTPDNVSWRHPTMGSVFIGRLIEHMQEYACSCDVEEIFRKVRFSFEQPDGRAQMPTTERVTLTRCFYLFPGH

[2] = target: T2, human caspase-5 (Homo sapiens, UniProt P51878); settings: Ac-P4-P3-P2-Asp-ACC substrate, 0.05-500 μM, 20-250 nM enzyme, 37°C, triplicate
T2 sequence (P51878 137-327 limits assumed): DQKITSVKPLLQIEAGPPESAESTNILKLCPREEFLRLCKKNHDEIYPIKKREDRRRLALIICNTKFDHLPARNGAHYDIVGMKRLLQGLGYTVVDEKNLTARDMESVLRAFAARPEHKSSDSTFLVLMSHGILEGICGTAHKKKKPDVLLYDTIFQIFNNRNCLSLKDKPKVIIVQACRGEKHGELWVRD
T2 sequence (P51878 347-434 limits assumed): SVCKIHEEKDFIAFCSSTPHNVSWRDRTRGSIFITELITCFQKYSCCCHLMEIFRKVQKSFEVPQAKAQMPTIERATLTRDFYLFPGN

[3] = target: T3, human caspase-9 (Homo sapiens, UniProt P55211); settings: Ac-P4-P3-P2-Asp-ACC substrate, 0.05-500 μM, 20-150 nM enzyme, 37°C, triplicate
T3 sequence (P55211 1-315 limits assumed): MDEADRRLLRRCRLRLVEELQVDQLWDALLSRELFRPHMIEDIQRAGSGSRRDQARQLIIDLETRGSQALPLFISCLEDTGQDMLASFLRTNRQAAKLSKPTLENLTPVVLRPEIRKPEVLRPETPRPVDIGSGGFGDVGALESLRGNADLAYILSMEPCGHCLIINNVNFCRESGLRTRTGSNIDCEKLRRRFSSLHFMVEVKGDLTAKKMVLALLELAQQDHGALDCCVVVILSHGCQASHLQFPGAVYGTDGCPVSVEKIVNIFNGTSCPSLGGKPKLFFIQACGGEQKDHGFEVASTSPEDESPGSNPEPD
T3 sequence (P55211 331-416 limits assumed): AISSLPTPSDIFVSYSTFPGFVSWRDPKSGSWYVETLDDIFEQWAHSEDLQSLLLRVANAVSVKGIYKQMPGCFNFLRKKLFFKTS

[4] = target: T4, human caspase-7 (Homo sapiens, UniProt P55210); settings: Ac-P4-P3-P2-Asp-ACC substrate, 0.05-500 μM, 40-400 nM enzyme, 37°C, triplicate
T4 sequence (P55210 24-198 limits assumed): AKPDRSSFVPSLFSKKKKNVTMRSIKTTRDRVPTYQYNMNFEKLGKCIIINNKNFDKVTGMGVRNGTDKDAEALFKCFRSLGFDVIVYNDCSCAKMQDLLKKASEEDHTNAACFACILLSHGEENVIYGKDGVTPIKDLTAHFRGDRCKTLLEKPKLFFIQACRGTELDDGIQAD
T4 sequence (P55210 207-303 limits assumed): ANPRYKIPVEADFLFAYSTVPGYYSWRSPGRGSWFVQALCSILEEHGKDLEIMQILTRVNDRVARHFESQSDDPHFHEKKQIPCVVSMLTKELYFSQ

[5] = target: T5, human caspase-4 (Homo sapiens, UniProt P49662); settings: Ac-P4-P3-P2-Asp-ACC substrate, 0.05-500 μM, 35-200 nM enzyme, 37°C, triplicate
T5 sequence (P49662 81-270 limits assumed): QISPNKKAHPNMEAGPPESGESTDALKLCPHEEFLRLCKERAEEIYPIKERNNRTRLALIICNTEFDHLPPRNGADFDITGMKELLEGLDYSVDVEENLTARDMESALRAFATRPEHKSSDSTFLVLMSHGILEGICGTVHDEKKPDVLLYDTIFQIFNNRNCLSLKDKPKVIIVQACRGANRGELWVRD
T5 sequence (P49662 290-377 limits assumed): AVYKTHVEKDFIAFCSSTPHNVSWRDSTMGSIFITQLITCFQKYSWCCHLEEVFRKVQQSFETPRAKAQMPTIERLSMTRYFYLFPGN

[6] = target: human caspase-8 (Homo sapiens, UniProt Q14790); settings: Ac-P4-P3-P2-Asp-ACC substrate, 0.05-500 μM, 6-42 nM enzyme, 37°C, triplicate
Sequence of human caspase-8 (Q14790 217-374 limits assumed): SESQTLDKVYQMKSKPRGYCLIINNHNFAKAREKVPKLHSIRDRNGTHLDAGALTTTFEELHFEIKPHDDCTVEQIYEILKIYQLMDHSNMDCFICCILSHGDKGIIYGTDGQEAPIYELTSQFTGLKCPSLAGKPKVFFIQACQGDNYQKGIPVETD
Sequence of human caspase-8 (Q14790 385-479 limits assumed): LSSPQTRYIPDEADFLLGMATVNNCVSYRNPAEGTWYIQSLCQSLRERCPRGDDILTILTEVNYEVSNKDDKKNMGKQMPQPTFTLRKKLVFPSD

[7] = target: T6, human caspase-3 (Homo sapiens, UniProt P42574); settings: Ac-P4-P3-P2-Asp-ACC substrate, 0.05-500 μM, 3-35 nM enzyme, 37°C, triplicate
T6 sequence (P42574 29-175 limits assumed): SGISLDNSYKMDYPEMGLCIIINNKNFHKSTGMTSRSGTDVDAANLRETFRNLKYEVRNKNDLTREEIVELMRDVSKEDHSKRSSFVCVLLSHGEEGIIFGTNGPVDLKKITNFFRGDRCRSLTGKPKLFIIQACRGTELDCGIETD
T6 sequence (P42574 176-277 limits assumed): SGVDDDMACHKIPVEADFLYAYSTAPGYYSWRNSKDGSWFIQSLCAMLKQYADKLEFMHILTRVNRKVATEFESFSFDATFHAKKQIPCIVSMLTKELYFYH

Substance	kcat/KM caspase-1 [1]	kcat/KM caspase-5 [2]	kcat/KM caspase-9 [3]	kcat/KM caspase-7 [4]	kcat/KM caspase-4 [5]	kcat/KM caspase-8 [6]	kcat/KM caspase-3 [7]
Trp(Me)-Dab-Pip-Asp	176 200 M^-1s^-1	3 930 M^-1s^-1	120 M⁻¹ s⁻¹	20 M⁻¹ s⁻¹	4 340 M^-1s^-1	150 M⁻¹ s⁻¹	740 M⁻¹ s⁻¹
[Phe(2-Cl)]E[Tic]D	243 800 M^-1s^-1	16 790 M^-1s^-1	5 410 M^-1s^-1	10 040 M^-1s^-1	15 180 M^-1s^-1	13 980 M^-1s^-1	75 860 M^-1s^-1
Trp-Glu-His-Asp	552 400 M^-1s^-1	26 800 M^-1s^-1	8 500 M^-1s^-1	410 M⁻¹ s⁻¹	18 000 M^-1s^-1	14 900 M^-1s^-1	8 970 M^-1s^-1
[2Nal]THD	146 200 M^-1s^-1	7 860 M^-1s^-1	5 660 M^-1s^-1	70 M⁻¹ s⁻¹	2 450 M^-1s^-1	1 990 M^-1s^-1	830 M⁻¹ s⁻¹
Tle-hGlu-Thr(Bzl)-Asp	12 400 M^-1s^-1	5 750 M^-1s^-1	7 820 M^-1s^-1	17 430 M^-1s^-1	2 130 M^-1s^-1	125 800 M^-1s^-1	179 800 M^-1s^-1
Ile-Glu-Thr-Asp	1 430 M^-1s^-1	2 850 M^-1s^-1	2 300 M^-1s^-1	3 400 M^-1s^-1	1 010 M^-1s^-1	95 400 M^-1s^-1	21 200 M^-1s^-1
V[Bip]HD	9 100 M^-1s^-1	380 M⁻¹ s⁻¹	1 790 M^-1s^-1	190 M⁻¹ s⁻¹	1 640 M^-1s^-1	2 710 M^-1s^-1	15 820 M^-1s^-1
Y[Phe(F5)]HD	161 900 M^-1s^-1	14 900 M^-1s^-1	7 300 M^-1s^-1	210 M⁻¹ s⁻¹	2 270 M^-1s^-1	3 150 M^-1s^-1	8 500 M^-1s^-1
[Cha]E[Tic]D	159 100 M^-1s^-1	28 860 M^-1s^-1	7 760 M^-1s^-1	950 M⁻¹ s⁻¹	37 900 M^-1s^-1	7 860 M^-1s^-1	10 440 M^-1s^-1
Trp(Me)-Glu-His(Bzl)-Asp	623 800 M^-1s^-1	20 140 M^-1s^-1	6 670 M^-1s^-1	280 M⁻¹ s⁻¹	15 800 M^-1s^-1	7 620 M^-1s^-1	6 300 M^-1s^-1
W(Me)Q[Tic]D	268 600 M^-1s^-1	14 500 M^-1s^-1	1 140 M^-1s^-1	290 M⁻¹ s⁻¹	11 300 M^-1s^-1	2 580 M^-1s^-1	4 340 M^-1s^-1
Thr-Trp-His-Asp	4 500 M^-1s^-1	600 M⁻¹ s⁻¹	4 810 M^-1s^-1	710 M⁻¹ s⁻¹	450 M⁻¹ s⁻¹	1 100 M^-1s^-1	26 990 M^-1s^-1
[Cha]EHD	184 300 M^-1s^-1 and 113 800 M^-1s^-1	34 640 M^-1s^-1 and 48 140 M^-1s^-1	8 770 M^-1s^-1 and 9 270 M^-1s^-1	370 M⁻¹ s⁻¹ and 380 M⁻¹ s⁻¹	21 340 M^-1s^-1 and 25 050 M^-1s^-1	28 040 M^-1s^-1 and 27 690 M^-1s^-1	6 390 M^-1s^-1 and 6 530 M^-1s^-1
Leu-Glu-His-Asp	97 500 M^-1s^-1	21 500 M^-1s^-1	12 700 M^-1s^-1	730 M⁻¹ s⁻¹	8 950 M^-1s^-1	186 000 M^-1s^-1	12 600 M^-1s^-1
Y(Me)QTD	105 200 M^-1s^-1	2 420 M^-1s^-1	550 M⁻¹ s⁻¹	1 530 M^-1s^-1	810 M⁻¹ s⁻¹	2 670 M^-1s^-1	8 740 M^-1s^-1

— publication doi:10.1101/2025.02.11.637513v1 (bioRxiv, 2025)
